Data reported in patent US20250213735A1, “NEUROPEPTIDE Y1 RECEPTOR (NPY1R) TARGETED THERAPEUTICS AND USES THEREOF” (Radionetics Oncology, Inc., priority 2023, published 2025).
Numbered stars: 1 amine (or outer) side, 2 acyl side, 3 side chain; on linkers, the order of the positions; unused ones are H or OH. Square brackets hold non-standard residues; d marks the D form. Peptide text beside a SMILES is read from it. * marks the point of attachment. dArg(Nω-CONH(CH2)2NHCOEt) = CCC(=O)NCCNC(=O)/N=C(/N)NCCC[C@@H](N)C(=O)O; DOTA = O=C(O)CN1CCN(CC(=O)O)CCN(CC(=O)*)CCN(CC(=O)O)CC1; X1 = O=C([C@H](c1ccc(OCCCN[*:1])cc1)N1Cc2ccccc2C1)[*:2]; NH(2,6-F2-4-OH-benzyl) = Oc1cc(F)c(CN*)c(F)c1; βAla = NCCC(=O)O

target: hNPY1R (Homo sapiens (Human), UniProt P25929); assay: NPY1R binding assay (SK-N-MC membrane, [125I]-Peptide YY competition); conditions: crude SK-N-MC membranes endogenously expressing NPY1R; [125I]-Peptide YY (human) 0.05 nM; 120 min at room temperature; read-out: hNPY1R binding Ki;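 further: bound radioligand separated by filtration over GF/C filter plates and counted, Ki obtained by non-linear regression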
Sequence (P25929 whole entry): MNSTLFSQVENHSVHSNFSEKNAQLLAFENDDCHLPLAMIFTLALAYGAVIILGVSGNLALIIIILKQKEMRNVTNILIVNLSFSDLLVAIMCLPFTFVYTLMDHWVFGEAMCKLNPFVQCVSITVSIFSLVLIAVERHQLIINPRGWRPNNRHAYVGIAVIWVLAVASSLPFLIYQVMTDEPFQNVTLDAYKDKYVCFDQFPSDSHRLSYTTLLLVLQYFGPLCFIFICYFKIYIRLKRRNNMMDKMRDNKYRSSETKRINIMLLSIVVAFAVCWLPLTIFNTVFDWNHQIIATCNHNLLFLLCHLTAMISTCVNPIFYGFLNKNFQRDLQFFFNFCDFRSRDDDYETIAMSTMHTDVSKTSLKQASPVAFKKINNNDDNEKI

SMILES	Ki [nM]
CCC(=O)NCCNC(=O)/N=C(/N)NCCC[C@@H](NC(=O)C(c1ccc(OCCCN)cc1)N1Cc2ccccc2C1)C(=O)NCc1c(F)cc(O)cc1F (stereo in doubt) [compound 62, (R)-2-((S)-2-(4-(3-aminopropoxy)phenyl)-2-(isoindolin-2-yl)acetamido)-N-(2,6-difluoro-4-hydroxybenzyl)-5-((Z)-2-((2-propionamidoethyl)carbamoyl)guanidino)pentanamide]	< 10
CCC(=O)NCCNC(=O)/N=C(/N)NCCC[C@@H](NC(=O)[C@H](c1ccc(OCCCNc2c(NCCCCCCNC(=O)CN3CCN(CC(=O)O)CCN(CC(=O)O)CCN(CC(=O)O)CC3)c(=O)c2=O)cc1)N1Cc2ccccc2C1)C(=O)NCc1c(F)cc(O)cc1F [compound 37, 2,2′,2″-(10-(2-((6-((2-((3-(4-((1S,4R,Z)-9-amino-4-((2,6-difluoro-4-hydroxybenzyl)carbamoyl)-1-(isoindolin-2-yl)-2,11,16-trioxo-3,8,10,12,15-pentaazaoctadec-9-en-1-yl)phenoxy)propyl)amino)-3,4-dioxocyclobut-1-en-1-yl)amino)hexyl)amino)-2-oxoethyl)-1,4,7,10-tetraazacyclododecane-1,4,7-triyl)triacetic acid]	< 10
CCC(=O)NCCNC(=O)/N=C(/N)NCCC[C@@H](NC(=O)[C@H](c1ccc(OCCCNC(=O)C[C@H]2NC(=O)[C@@H](CCNC(=O)CN3CCN(CC(=O)O)CCN(CC(=O)O)CCN(CC(=O)O)CC3)NC2=O)cc1)N1Cc2ccccc2C1)C(=O)NCc1c(F)cc(O)cc1F [compound 52, 2,2′,2″-(10-(2-((2-((2R,5R)-5-(2-((3-(4-((1S,4R,Z)-9-amino-4-((2,6-difluoro-4-hydroxybenzyl)carbamoyl)-1-(isoindolin-2-yl)-2,11,16-trioxo-3,8,10,12,15-pentaazaoctadec-9-en-1-yl)phenoxy)propyl)amino)-2-oxoethyl)-3,6-dioxopiperazin-2-yl)ethyl)amino)-2-oxoethyl)-1,4,7,10-tetraazacyclododecane-1,4,7-triyl)triacetic acid]	< 10
CCC(=O)NCCNC(=O)/N=C(/N)NCCC[C@@H](NC(=O)[C@H](c1ccc(OCCCNC(=O)[C@@H](CO)NC(=O)[C@@H](CO)NC(=O)[C@@H](CO)NC(=O)CCNC(=O)CN2CCN(CC(=O)O)CCN(CC(=O)O)CCN(CC(=O)O)CC2)cc1)N1Cc2ccccc2C1)C(=O)NCc1c(F)cc(O)cc1F [compound 54, 2,2′,2″-(10-((8R,11R,14R)-19-(4-((1S,4R,Z)-9-amino-4-((2,6-difluoro-4-hydroxybenzyl)carbamoyl)-1-(isoindolin-2-yl)-2,11,16-trioxo-3,8,10,12,15-pentaazaoctadec-9-en-1-yl)phenoxy)-8,11,14-tris(hydroxymethyl)-2,6,9,12,15-pentaoxo-3,7,10,13,16-pentaazanonadecyl)-1,4,7,10-tetraazacyclododecane-1,4,7-triyl)triacetic acid] ({DOTA-βAla}-[dS][dS][dS][X1][dArg(Nω-CONH(CH2)2NHCOEt)]-{NH(2,6-F2-4-OH-benzyl)})	< 10
CCC1CCN(C(C(=O)N[C@H](CCCNC(=N)N)C(=O)NCc2ccc(O)cc2)c2ccccc2)CC1 (stereo partly drawn) [compound 79, (2R)-2-(2-(4-ethylpiperidin-1-yl)-2-phenylacetamido)-5-guanidino-N-(4-hydroxybenzyl)pentanamide]	10 to 100
CCC(=O)NCCNC(=O)/N=C(/N)NCCC[C@@H](NC(=O)[C@H](c1ccc(OCCCNC(=O)C[C@H](O)C[C@H](O)CCNC(=O)CCC(=O)NCCNC(=O)CN2CCN(CC(=O)O)CCN(CC(=O)O)CCN(CC(=O)O)CC2)cc1)N1Cc2ccccc2C1)C(=O)NCc1c(F)cc(O)cc1F [compound 53, 2,2′,2″-(10-((14R,16R)-22-(4-((1S,4R,Z)-9-amino-4-((2,6-difluoro-4-hydroxybenzyl)carbamoyl)-1-(isoindolin-2-yl)-2,11,16-trioxo-3,8,10,12,15-pentaazaoctadec-9-en-1-yl)phenoxy)-14,16-dihydroxy-2,7,10,18-tetraoxo-3,6,11,19-tetraazadocosyl)-1,4,7,10-tetraazacyclododecane-1,4,7-triyl)triacetic acid]	< 10
N=C(N)NCCC[C@@H](NC(=O)C(c1ccccc1)N1CCC2(CCCCC2)CC1)C(=O)NCc1ccc(O)cc1 (stereo partly drawn) [compound 87, (2R)-5-guanidino-N-(4-hydroxybenzyl)-2-(2-phenyl-2-(3-azaspiro[5.5]undecan-3-yl)acetamido)pentanamide]	100 to 1000
CCC(=O)NCCNC(=O)/N=C(/N)NCCC[C@@H](NC(=O)[C@H](c1ccc(OCCCNC(=O)C[C@H]2NC(=O)[C@@H](CCCNC(=O)CN3CCN(CC(=O)O)CCN(CC(=O)O)CCN(CC(=O)O)CC3)NC2=O)cc1)N1Cc2ccccc2C1)C(=O)NCc1c(F)cc(O)cc1F [compound 38, 2,2′,2″-(10-(2-((3-((2R,5R)-5-(2-((3-(4-((1S,4R,Z)-9-amino-4-((2,6-difluoro-4-hydroxybenzyl)carbamoyl)-1-(isoindolin-2-yl)-2,11,16-trioxo-3,8,10,12,15-pentaazaoctadec-9-en-1-yl)phenoxy)propyl)amino)-2-oxoethyl)-3,6-dioxopiperazin-2-yl)propyl)amino)-2-oxoethyl)-1,4,7,10-tetraazacyclododecane-1,4,7-triyl)triacetic acid]	< 10
CCC(=O)NCCNC(=O)/N=C(/N)NCCC[C@@H](NC(=O)[C@H](c1cccc(NC(=O)CCCNc2c(NCCCCCCNC(=O)CN3CCN(CC(=O)O)CCN(CC(=O)O)CCN(CC(=O)O)CC3)c(=O)c2=O)c1)N1Cc2ccccc2C1)C(=O)NCc1c(F)cc(O)cc1F (single isomer, unassigned) [31A]	< 10
CC1(C)C2CN([C@@H](C(=O)N[C@H](CCCNC(=N)N)C(=O)NCc3ccc(O)cc3)c3ccccc3)CC21 (stereo partly drawn) [88B, (2R)-2-((2R)-2-(6,6-dimethyl-3-azabicyclo[3.1.0]hexan-3-yl)-2-phenylacetamido)-5-guanidino-N-(4-hydroxybenzyl)pentanamide]	> 1000
CCC(=O)NCCNC(=O)/N=C(/N)NCCC[C@@H](NC(=O)[C@H](c1ccc(OCCCN2CCN(C(=O)CCNC(=O)CN3CCN(CC(=O)O)CCN(CC(=O)O)CCN(CC(=O)O)CC3)CC2)cc1)N1Cc2ccccc2C1)C(=O)NCc1c(F)cc(O)cc1F [compound 4, 2,2′,2″-(10-(2-((3-(4-(3-(4-((1S,4R,Z)-9-amino-4-((2,6-difluoro-4-hydroxybenzyl)carbamoyl)-1-(isoindolin-2-yl)-2,11,16-trioxo-3,8,10,12,15-pentaazaoctadec-9-en-1-yl)phenoxy)propyl)piperazin-1-yl)-3-oxopropyl)amino)-2-oxoethyl)-1,4,7,10-tetraazacyclododecane-1,4,7-triyl)triacetic acid-2,2,2-trifluoroacetic acid (1/1)]	< 10
CC1(C)CCN(C(C(=O)N[C@H](CCCNC(=N)N)C(=O)NCc2ccc(O)cc2)c2ccccc2)CC1 (stereo partly drawn) [compound 74, (2R)-2-(2-(4,4-dimethylpiperidin-1-yl)-2-phenylacetamido)-5-guanidino-N-(4-hydroxybenzyl)pentanamide]	100 to 1000
CC1(C)CCCN(C(C(=O)N[C@H](CCCNC(=N)N)C(=O)NCc2ccc(O)cc2)c2ccccc2)C1 (stereo partly drawn) [compound 75, (2R)-2-(2-(3,3-dimethylpiperidin-1-yl)-2-phenylacetamido)-5-guanidino-N-(4-hydroxybenzyl)pentanamide]	100 to 1000
